{"source": "BindingDB's records for doi:10.1021/acschembio.6b00156", "about": "(Helmholtz-Institute For Pharmaceutical Research Saarland, 2016)", "target": "Quinolone signal response protein (Pseudomonas aeruginosa, UniProt A0A072ZMX8)", "sequence (A0A072ZMX8 whole entry, the tested form may be a part)": "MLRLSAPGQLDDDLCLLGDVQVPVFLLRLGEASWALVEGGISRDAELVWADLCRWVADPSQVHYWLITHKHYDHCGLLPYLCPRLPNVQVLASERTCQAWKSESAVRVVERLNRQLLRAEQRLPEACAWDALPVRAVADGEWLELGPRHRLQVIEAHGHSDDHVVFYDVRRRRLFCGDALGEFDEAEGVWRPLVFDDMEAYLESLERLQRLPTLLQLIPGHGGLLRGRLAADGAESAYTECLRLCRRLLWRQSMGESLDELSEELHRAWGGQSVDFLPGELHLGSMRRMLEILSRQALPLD", "assay": "Isothermal Titration Calorimetry (ITC)", "conditions": "14 °C", "method": "ITC titrations were performed using an ITC200 instrument (Microcal Inc.,Malvern). DMSO stock solutions (20 mM) of fragments were diluted 1:20 (v/v) into ITC titration buffer (50 mM tricine, 2 mM MnCl2, pH = 8.5) to give a 1 mM final compound concentration at 5% (v/v) DMSO. Aliquots of the same buffer batch (stored at […]) were used as for protein storage to avoid a buffer mismatch. H6PqsE was diluted in the same buffer to 100 μM, and DMSO concentration was adjusted to 5% (v/v). Titrations were carried out at 298 K using 19 injections of 2 μL every 180 s. Areas under the peaks were integrated. Baseline peaks at the endof a titration accounting for the heat of dilution and mixing were subtracted from the measurement. Data were fitted to a 1:1 binding model (MicroCal Origin 7 software).", "data": [{"smiles": "Cc1ccsc1C(=O)O", "note": "[AC30341 (3)]", "values": [{"measurement": "Kd", "result": 19.6, "unit": "µM"}]}, {"smiles": "O=C(O)c1ccccc1-c1cccnc1", "note": "[CC41801 (1)]", "values": [{"measurement": "Kd", "result": 0.9, "unit": "µM"}]}]}
